Test results reported in US10656159B2, “Immunoassays of s-adenosylmethionine and methylation index in personalized medicine and health evaluation” (HUNAN SKYWORLD BIOTECHNOLOGIES CO, priority 2013, dated 2020).
“And” between values parts separate entries of the source, which are not always exact repeats. Equal values may be shown once. “Also recorded” adds a separate entry of the source. Values belong to the compound of their own block, whether it stands above or below them.

How the values were obtained:
[1] = Thermal stability of SAM and SAH in human plasma; format: in vitro ADME
Experimental: The stability of SAM and SAH at different temperatures, as well as their stability in acid and base environment were tested. The 310 human plasma samples were placed at room temperature for 2 hours. […] The increased SAH was due to de-methylation of SAM in ex vivi situation within a few hours of blood withdrawal.
Results from stability study for different temperature conditions, i.e. 4° C., 15° C. (room temperature), 37° C. and 56° C., were obtained mainly on SAM and partially on SAH measurements. Plasma from 4 individual samples S3, S4, S5 and S6 were used in 4° C., 15° C. and 37° C. experiments.
However, when samples were placed at room temperature (˜15° C.) and 37° C., SAM was degraded rapidly especially at 37° C., SAM degradation rate reached a maximum at about 4-6 hours under 37° C. […] At about 6 hours after blood withdrawal, SAM level was reduced whereas SAH level was increased. The values of SAH were recorded as >1000 nM from 6 hours to 3 days, thus SAH leaks were not shown. The level of SAH was maintained at a high level for about 3 days before it started to drop. SAM level went down continuously. […] It cannot be ruled out that inhibition of SAH converting to other metabolites or degradation also existed causing it to stay high for quite some time. It meant to show the dynamics of SAM and SAH for this particular sample. Difference among samples exists. Samples S1, S2, S3 and S4 were used in 56° C. experiments. The results are shown in FIG. 19F-G. SAM was quickly undetectable in 10 minutes at 56° C., whereas SAH was dramatically degraded in 10 minutes and fully undetectable after about 4 hours at 56° C.

[2] = cELISA sensitivity / SAH standard curve; format: binding; settings: HRP-anti-301-1 1:1000, 0.5 μg/ml BSA-SAH coat
Experimental: The cELISA result from Table 1C with obtained from 0.5 μg/ml BSA-SAH coated micro-titer plate, HRP-anti-301-1 at dilution of 1:1000 in PBS incubation system. Different amounts of coating antigen, antibody, and incubating buffer will give slightly different minimum detection limits.

[3] = Dialysis of plasma: free and non-free SAM and SAH; format: in vitro ADME, human; settings: for Amount left after dialysis: 37° C., 24 hour; for Non-free form left within the dialysis bag: dialysis 15° C., 24 hours, 20 mM phosphate buffer pH 7.4, bag MW 14,000
Experimental: To distinguish whether there are conjugated form of SAM and SAH in human plasma, we used dialysis bags to dialyze plasma samples at different temperature for 24 hours with at least two changes of dialyzing buffer (20 mM PB, pH7.4), then measured the SAM and SAH levels before and after dialysis.
Notice that for those SAH data which were greater than or equal to 1000 nM, only 1000 nM was used in the figure. Therefore, it is obvious that the immunoassays used in this invention can bind free SAM and SAH from human plasma. The differences of SAM or SAH as measured before and after dialysis (20 mM phosphate buffer, pH 7.4) for each sample represented the free SAM or SAH molecules that escaped from the dialysis bag (MW 14,000, Biosharp, USA) into the dialysis buffer, therefore they could not be detected from the sample collected from dialysis bag.
FIGS. 20A and 20B also show the percentages of SAM and SAH that were left within the dialysis bag after dialysis at 15° C. for 24 hours, which represented the amount of non-free SAM and SAH respectively.

[4] = Stability of SAM and SAH in plasma at different pH; format: in vitro ADME, human; settings: for Level at 1 day time point: maximum detection limit 1000 nM; for Effect of pH on degradation: plasma, 15° C., pH 5.5-6.0, 7.0-7.5, 8.0-8.5
Experimental: The stability of SAM and SAH was also tested in acidic and basic conditions at 15° C. Normal mixed plasma sample (S8) (with pH 7.84), samples S1, S2, S3, S4 (pH 7.0-7.5) were used in the experiments. 10 μl 5M HCl was added to 1260 μl plasma to adjust its pH to 5.5-6.0. In another set of samples, 2 μl 5M NaOH was added to 1260 μl plasma to adjust its pH to 8.0-8.5. Before using these acidic or basic samples to conduct the immunoassay, 1.1 μl 5M NaOH was added to 180 μl acidic samples; 0.376 μl 5M HCl was added to 180 μl basic samples to make them neutral. Meanwhile, standards were also added the same amount of acid and base as the samples.
This observation was consistent with a prior publication regarding pH stability of SAM (Parks, L W, et al. jbc.org Aug. 23, 1957). […] However basic environment has a stronger impact than acidic environment. The SAH data at 1 day time point, the SAH levels for pH 7.0-7.5 and pH 5.5-6.0 curves were measured to be greater than 1000 nM. The experiment has maximum detection limit as 1000 nM, only 1000 nM points were plotted, therefore the spikes at 1 day time point could not been see for pH 7.0-7.5 and pH 5.5-6.0 curves. This figure is meant to show the dynamics of SAH level for this particular sample. Difference among samples exists.

[5] = oral, alcoholic liver cirrhosis, versus placebo; cited from earlier work
[6] = test system: nucleolar 2-O-methyltransferase; settings: cited from earlier work
[7] = 310 human plasma samples, room temperature 2 hours versus 4° C.

- Increase of level [1, 7]: 21.05%±83.31%
- Time level was maintained at a high level before it started to drop ([1]; plasma, 15° C.): about 3 days
- Time to fully undetectable ([1]; plasma, 56° C.): about 4 hours
- Amount left after dialysis [3]: trivial or no SAM and SAH left
- Non-free form left within the dialysis bag [3]: around 30%
- Level at 1 day time point ([4]; plasma pH 5.5-6.0, 15° C.): greater than 1000 nM
- Level at 1 day time point ([4]; plasma pH 7.0-7.5, 15° C.): greater than 1000 nM
Structure (SMILES): Nc1ncnc2c1ncn2[C@@H]1O[C@H](CSCC[C@H](N)C(=O)O)[C@@H](O)[C@H]1O [SAH, S-Adenosylhomocysteine]
- OD450 ([2]; SAH 3.906 nM): 0.7722 and 0.9144 and 0.7786
- OD450 Mean ([2]; SAH 3.906 nM): 0.8217
- OD450 ([2]; SAH 7.8125 nM): 0.7602 and 0.8113 and 0.7708
- OD450 Mean ([2]; SAH 7.8125 nM): 0.7808
- OD450 ([2]; SAH 15.625 nM): 0.8045 and 0.8273 and 0.7975
- OD450 Mean ([2]; SAH 15.625 nM): 0.8098
- OD450 ([2]; SAH 31.25 nM): 0.7285 and 0.8199 and 0.7545
- OD450 Mean ([2]; SAH 31.25 nM): 0.7676
- OD450 ([2]; SAH 62.5 nM): 0.6055 and 0.7115 and 0.6444
- OD450 Mean ([2]; SAH 62.5 nM): 0.6538
- OD450 ([2]; SAH 125 nM): 0.5421 and 0.6358 and 0.5372
- OD450 Mean ([2]; SAH 125 nM): 0.5717
- OD450 ([2]; SAH 250 nM): 0.4116 and 0.4426 and 0.442
- OD450 Mean ([2]; SAH 250 nM): 0.4321
- Effect of pH on degradation [4]: both acidic and basic environment speeded up plasma SAH degradation; also recorded: Both acid and base increased the speed SAH was degraded

Structure (SMILES): C[S+](CC[C@H](N)C(=O)O)C[C@H]1O[C@@H](n2cnc3c(N)ncnc32)[C@H](O)[C@@H]1O (some centres unmarked) [SAM, S-Adenosylmethionine]
- Reduction of level [1, 7]: 33.81%±19.43%
- Stability ([1]; plasma, 37° C.): reduced quickly in all samples
- Time at which degradation rate reached a maximum ([1]; plasma, 37° C.): 4 to 6 h
- Stability ([1]; plasma, 56° C.): reduced even faster than at 37 °C
- Time to undetectable ([1]; plasma, 56° C.): 10 min
- Amount left after dialysis [3]: trivial or no SAM and SAH left
- Non-free form left within the dialysis bag [3]: 11-25%
- Effect of pH on degradation [4]: degradation rate increased with pH values; also recorded: Low pH (acidic environment) helped prevent SAM from quick degradation
- Overall mortality and/or progression to liver transplant [5]: 12%

Structure (SMILES): C[S+](CC[C@H](N)C(=O)[O-])C[C@H]1O[C@@H](n2cnc3c(N)ncnc32)[C@H](O)[C@@H]1O (stereo partly drawn) [(S, S)-SAM-e]
- Binding tightness relative to (R, S)-SAM-e [6]: 10 fold
